Blank lines part the entries; values can stand above or below the compound they belong to.
Assays:
[1] = tested on: HeLa; assay: Antiproliferative activity against human HeLa cells assessed as reduction in cell viability by MTT assay; format: functional, cell-based
[2] = tested on: HCT-116; assay: Growth inhibition of human HCT-116 cells; format: functional
[3] = tested on: HCT-116; assay: Growth inhibition of human HCT-116 cells measured for 48 hrs by SRB assay; format: functional
[4] = tested on: SW480; assay: Cytotoxicity against human SW480 cells assessed as reduction in cell viability incubated for 72 hrs by celltiter glo assay; format: functional, cell-based; details: SW480, 72 h
[5] = tested on: HeLa; assay: Antiproliferative activity against human HeLa cells assessed cell growth reduction incubated for 48 hrs by MTT assay; format: functional, cell-based
[6] = tested on: HCT-116; assay: Cytotoxicity against human HCT-116 cells assessed as reduction in cell viability incubated for 72 hrs by MTS assay; format: functional, cell-based; details: HCT-116, 72 h
[7] = tested on: HepG2; assay: Cytotoxicity against human HepG2 cells; format: functional, cell-based
[8] = tested on: HepG2; assay: Anticancer activity against human HepG2 cells assessed as reduction in cell viability; format: functional, cell-based
[9] = tested on: A2780; assay: Cytotoxicity against human A2780 cells assessed as reduction in cell viability incubated for 72 hrs by MTS assay; format: functional, cell-based; details: A2780, 72 h
[10] = tested on: MIA PaCa-2; assay: Cytotoxicity against human MIA PaCa-2 cells assessed as reduction in cell viability incubated for 72 hrs by MTS assay; format: functional, cell-based; details: MIA PaCa-2, 72 h
[11] = tested on: K562; assay: Cytotoxicity against human K562 cells assessed as reduction in cell viability incubated for 72 hrs by MTS assay; format: functional, cell-based; details: K562, 72 h
[12] = tested on: JIMT-1; assay: Antiproliferative activity against human JIMT-1 cells assessed as reduction in cell viability incubated for 72 hrs by MTS assay; format: functional, cell-based; details: JIMT-1, 72 h
[13] = tested on: HepG2; assay: Antiproliferative activity against human HepG2 cells assessed as reduction in cell growth; format: functional, cell-based
[14] = tested on: HeLa; assay: Cytotoxicity against human HeLa cells assessed as reduction in cell viability after 72 hrs by MTS assay; format: functional, cell-based
[15] = tested on: HL-60; assay: Cytotoxicity against human HL-60 cells assessed as reduction in cell viability incubated for 48 hrs by MTT assay; format: functional, cell-based; details: HL-60, 48 h
[16] = tested on: A2780cisR; assay: Antiproliferative activity against human cisplatin-resistant A2780 cells assessed as reduction in cell viability incubated for 72 hrs by MTS assay; format: functional, cell-based
[17] = tested on: HeLa; assay: Cytotoxicity against human HeLa cells assessed as reduction in cell growth incubated for 72 hrs by MTT assay; format: functional, cell-based
[18] = tested on: HepG2; assay: Antiproliferative activity against human HepG2 cells assessed as inhibition of cell growth relative to control; format: functional; design: scale not given: the % may be the effect or the level left

- IC50 [1]: 0.11 µM
Structure (SMILES): CCOc1ccc(CCc2cc(OC)c(OC)c(OC)c2)cc1O

Structure (SMILES): COc1ccc(C(C)c2cc(OC)c(OC)c(OC)c2)cc1N (stereo not drawn)
- GI50 [2]: 0.06 µM
- GI50 [3]: 0.028 µM

Structure (SMILES): COc1ccc(/C=C\c2cc(OC)c(OC)c(OC)c2)cc1O [COMBRETASTATIN A4]
- IC50 [4]: 0.27 µM

- IC50 [5]: 0.05 µM
Structure (SMILES): COc1cc(CCc2ccc(C(C)(F)F)cc2NC(=O)CN)cc(OC)c1OC

Structure (SMILES): CN(c1ccc2c(c1)c1ccccc1n2C)c1nc(Cl)nc2ccccc12
- IC50 [6]: 0.001 µM

Structure (SMILES): COc1ccc(CCc2cc(OC)c(OC)c(OC)c2)cc1OC(=O)c1cncc(Cl)c1
- IC50 [7]: 0.0324 µM

- GI50 [2]: 0.03 µM
- GI50 [3]: 0.03 µM
Structure (SMILES): COc1ccc(C(c2cc(OC)c(OC)c(OC)c2)C(F)F)cc1O (stereo not drawn)

Structure (SMILES): COc1cc(CCc2ccc(OC(F)F)c(O)c2)cc(OC)c1OC
- IC50 [4]: 0.18 µM

- IC50 [8]: > 0.5 µM
Structure (SMILES): COc1ccc(CCc2cc(OC)c(OC)c(OC)c2)cc1OC(=O)c1c[nH]c2ccccc12

- GI50 [2]: 0.06 µM
Structure (SMILES): COc1ccc(C(C)c2cc(OC)c(OC)c(OC)c2)nc1 (stereo not drawn)

- IC50 [8]: > 0.5 µM
Structure (SMILES): COc1ccc(CCc2cc(OC)c(OC)c(OC)c2)cc1OC(=O)c1ccsc1

- GI50 [3]: 0.3 µM
Structure (SMILES): COc1cc(OC)cc(C(C)c2ccc(OC)c(N)c2)c1 (stereo not drawn)

Structure (SMILES): COc1ccc(CCc2cc(OC)c(OC)c(OC)c2)cc1OC(=O)c1cncc(Br)c1
- IC50 [7]: 0.0135 µM

- IC50 [5]: 0.13 µM
Structure (SMILES): COc1cc(CCc2ccc(OC(C)(F)F)cc2[N+](=O)[O-])cc(OC)c1OC

- GI50 [3]: 6 µM
Structure (SMILES): COc1ccc(Cc2cc(OC)c(OC)c(OC)c2)cc1O

- IC50 [1]: 0.16 µM
Structure (SMILES): COc1ccc(CCc2cc(OC)c(OC)c(OC)c2)cc1N

Structure (SMILES): CN(c1ccc2c(ccn2C)n1)c1nc(Cl)nc2ccccc12
- IC50 [9]: 0.00024 µM
- IC50 [10]: 0.00024 µM
- IC50 [11]: 0.00024 µM
- IC50 [12]: 0.00024 µM

- GI50 [2]: 0.1 µM
Structure (SMILES): COc1ccc(C(C)c2cc(C)c(OC)c(OC)c2)cc1OP(=O)(O)O (stereo not drawn)

- IC50 [13]: > 2 µM
Structure (SMILES): CCCOc1ccc(CCc2cc(OC)c(OC)c(OC)c2)cc1O

- IC50 [8]: > 0.5 µM
Structure (SMILES): COc1ccc(CCc2cc(OC)c(OC)c(OC)c2)cc1OC(=O)c1cnc(C)nc1

Structure (SMILES): Cc1nc(N(C)c2ccc3c(c2)c2ccccc2n3C)c2ccccc2n1
- IC50 [6]: 0.002 µM

- IC50 [8]: > 0.5 µM
Structure (SMILES): COc1ccc(CCc2cc(OC)c(OC)c(OC)c2)cc1OC(=O)c1cscn1

Structure (SMILES): COc1ccc(CCc2cc(OC)c(OC)c(OC)c2)cc1OC(=O)CCCCCNC(=O)CCCC[C@@H]1SC[C@@H]2NC(=O)N[C@@H]21
- IC50 [14]: 0.026 µM

Structure (SMILES): COc1ccc(CCc2cc(OC)c(OC)c(OC)c2)cc1OC(=O)CCC(=O)O
- IC50 [15]: 0.048 µM

- IC50 [8]: > 0.5 µM
Structure (SMILES): COc1ccc(CCc2cc(OC)c(OC)c(OC)c2)cc1OC(=O)c1cncnc1

- IC50 [8]: > 0.5 µM
Structure (SMILES): COc1ccc(CCc2cc(OC)c(OC)c(OC)c2)cc1OC(=O)c1ccoc1

- IC50 [16]: 0.00028 µM
Structure (SMILES): Cc1cc(N(C)c2ccc3c(n2)OCCO3)c2ccccc2n1
- IC50 [6]: 0.02 µM

- IC50 [8]: > 0.5 µM
Structure (SMILES): COc1ccc(CCc2cc(OC)c(OC)c(OC)c2)cc1OC(=O)c1ccnnc1

- IC50 [16]: 0.00024 µM
Structure (SMILES): Cc1cc(N(C)c2ccc3c(c2)c2ccccc2n3C)c2ccccc2n1
- IC50 [9]: 0.00028 µM
- IC50 [10]: 0.00028 µM
- IC50 [11]: 0.00028 µM
- IC50 [12]: 0.00028 µM

Structure (SMILES): COc1cc(CCc2ccc(OC(F)F)c(OP(=O)(O)O)c2)cc(OC)c1OC
- IC50 [17]: 0.11 µM

Structure (SMILES): CN(c1ccc2c(c1)c1ccccc1n2C)c1cc(Cl)nc2ccccc12
- IC50 [6]: 0.016 µM

- IC50 [8]: > 0.5 µM
Structure (SMILES): COc1ccc(CCc2cc(OC)c(OC)c(OC)c2)cc1OC(=O)c1cccnc1

Structure (SMILES): CN(c1ccc2c(ccn2C)c1)c1cc(C(F)(F)F)nc2ccccc12
- IC50 [6]: 0.003 µM

- IC50 [13]: > 0.5 µM
Structure (SMILES): COc1cc(CCc2ccc(OC(=O)CCn3cc(F)c(=O)[nH]c3=O)c(O)c2)cc(OC)c1OC

Structure (SMILES): COc1cccc2c(N(C)c3ccc4c(c3)c3ccccc3n4C)cc(C)nc12
- IC50 [6]: 0.021 µM

Structure (SMILES): COc1ccc(CCc2cc(OC)c(OC)c(OC)c2)cc1OC(=O)CCCC[C@H]1SC[C@H]2NC(=O)N[C@H]21
- IC50 [14]: 0.494 µM

- IC50 [1]: 0.2 µM
Structure (SMILES): CCOc1ccc(CCc2cc(OC)c(OC)c(OC)c2)cc1N

- IC50 [5]: 0.46 µM
Structure (SMILES): COc1cc(CCc2ccc(OC(C)(F)F)cc2N)cc(OC)c1OC

- IC50 [5]: 0.11 µM
Structure (SMILES): COc1cc(CCc2ccc(OC(C)(F)F)cc2)cc(OC)c1OC

Structure (SMILES): COc1ccc(CCc2cc(OC)c(OC)c(OC)c2)cc1OC(=O)CCC(=O)Oc1cc(CCc2cc(OC)c(OC)c(OC)c2)ccc1OC
- IC50 [15]: 0.082 µM

- GI50 [2]: 0.05 µM
- GI50 [3]: 0.05 µM
Structure (SMILES): COc1ccc(C(CC#N)c2cc(OC)c(OC)c(OC)c2)cc1O (stereo not drawn)

- IC50 [13]: 0.0728 µM
Structure (SMILES): COc1cc(CCc2ccc(OCCF)c(O)c2)cc(OC)c1OC
- Activity [18]: 80.94%

Structure (SMILES): COc1cc(CCc2ccc(OC(F)F)c(NC(=O)CN)c2)cc(OC)c1OC
- IC50 [17]: 0.07 µM

Structure (SMILES): COc1ccc(N(C)c2cc(C)nc3ccccc23)nc1N
- IC50 [6]: 0.001 µM

- GI50 [3]: 6 µM
Structure (SMILES): CCOc1cc(C(C)c2ccc(OC)c(N)c2)ccc1OC (stereo not drawn)

- GI50 [2]: 0.029 µM
Structure (SMILES): COc1cc(C(C)c2ccc3c(ccn3C)c2)cc(OC)c1OC (stereo not drawn)
